Patent publication US11291655B2, “RAD51 inhibitors” (Cyteir Therapeutics, Inc., priority 2017, dated 2022)

Test system: Daudi Cell Culture
Assay: Compound primary screening in Daudi cell culture
Format: cell-based
Conditions: Daudi cells, 1250 cells per well, reads on Day 7; for EC50: Homo sapiens, 168 h
Experimental: Compound Primary Screening
1. Materials and Supplies
Plastic ware and consumables needed for this experiment include: Cell Culture media; Evaporation Buffer media; 100% DMSO; 96 well U-bottom sterile culture plates; 250 mL bottle; 1.5 mL Opaque amber epi tubes; Epi Tube rack; 300 mL reservoirs; 25 mL reservoir; 25 mL serological pipette tips; 5 mL serological pipette tips P1000 Pipette Tips; and P200 Pipette Tips.
Equipment needed for this experiment include: Viaflo 384 liquid handler; Eppendorf serological pipette; Eppendorf P1000 Pipette; and Eppendorf P200 Pipette
Daudi Cell Culture is also needed for this experiment.
Lastly, compounds (e.g., the compounds of this invention) to be tested are needed.
All steps were performed in a sterile environment inside the Biosafety cabinet.
A 96 well u-bottom plate was prepared by writing the experiment number, plate number, date and initials in the top right corner of the plate lid. With a sterile 300 ml reservoir, and 25 ml serological pipette, evaporation buffer media was pipetted into reservoir in 25 ml increments. Using the liquid handler, 150 ul of evaporation buffer media was pipetted from reservoir into rows A and H, and Columns 1 and 12 of the 96 well u-bottom plate. Cell cultures were counted to obtain the density of cells per ml, and the culture viability. The cell density information was used to obtain 1,000,000 cells from culture using a 5 mL serological pipette into an epi tube. The cell density information from the culture was used to calculate the number of cells and volume of media needed for the assay to seed 1250 cells in 130 ul of media per available culture well in the 96 well u-bottom plate. Rows B through F were used for cells (50 wells in total), with row G left for an empty media control. The calculation was overestimated by 10 mL to account for the dead volume in the 300 ml reservoir. Once the media volume was calculated, the appropriate volume of media was pipetted in 25 mL increments into the 250 mL bottle using a 25 mL serological pipette. The 250 ml bottle was capped tightly, and placed into a 37° C. water bath for 2 minutes. While the culture media was warming, 10 mL of fresh media was pipetted from the 500 mL culture media bottle into a sterile 25 mL reservoir. Using the Eppendorf multichannel pipette, 130 ul of media was pipetted from the 25 mL reservoir into row G of the 96 well u-bottom plate. Once the 250 mL bottle of media was warmed, the volume of culture needed was pipetted into the bottle, and mixed gently with a 25 mL serological pipette as to not create bubbles, and then the contents of the bottle were pipetted into a new 300 mL reservoir. Using the liquid handler, 130 ul of culture was pipetted from the 300 mL reservoir into rows B through F of the 96 well u-bottom plate. Once the culture was added, the plate was placed into a 37° C. incubator until the compound master plate was prepared for use.
Two 96 well u-bottom plates were prepared by writing the master plate name in the upper right corner of the plate lid. Labeling one DMSO master and the other Media Master. The compounds of interest were obtained from the laboratory freezer, and placed into a 25 well storage box with a lid, and set the box aside. The compounds were vortexed after thawing but before use. Using an automatic multichannel pipette, 20 ul of 100% DMSO was pipetted into wells B3-B11 through G3-G11 of the DMSO master plate. For each compound on the master plate, 50 ul of the compound were pipetted in the appropriate well of row 2 (reference plate map to determine appropriate well). A serial dilution was prepared beginning by aspirating 20 ul from row 2 and mixing with row 3, repeating until row 11 was reached. Using the liquid handler, 194 ul of Daudi media was dispensed into wells B2-B11 through G2-G11 of the Media master plate. Using the liquid handler, 6 ul from the DMSO master plate was aspirated and dispensed into the media master plate, mixing 100 ul twice. […]

| EC50 [µM] | SMILES | EC50 (μM) |
| --- | --- | --- |
| < 5 | CC(C)OC(=O)Nc1ccc(-c2ncc(-c3ccc(NCC(F)(F)F)cc3S(=O)(=O)NC(C)(C)C)s2)cc1 [Compound I3, isopropyl N-[4-[5-[2-(tert-butylsulfamoyl)-4-(2,2,2-trifluoroethylamino)phenyl]thiazol-2-yl]phenyl]carbamate] |  |
| < 5 | CC(C)OC(=O)Nc1ccc(-c2ncc(-c3ccc(NC4(C)COC4)cc3S(=O)(=O)NC(C)(C)C)s2)cc1 [Compound I4] |  |
| < 5 | CNC(=O)c1ccc(-c2cnc(-c3ccc(NC(=O)OC(C)C)cc3)s2)c(S(=O)(=O)NC(C)(C)C)c1 [Compound I5] |  |
| < 5 | CC(C)OC(=O)Nc1ccc(-c2ncc(-c3ccc(C(N)=O)cc3S(=O)(=O)NC(C)(C)C)s2)cc1 [Compound I6] |  |
| < 5 | CC(C)OC(=O)Nc1ccc(-c2ncc(-c3ccc(CO)cc3S(=O)(=O)NC(C)(C)C)s2)cc1 [Compound J1] |  |
| < 5 | CC(C)OC(=O)Nc1ccc(-c2ncc(-c3ccc(-c4ccn[nH]4)cc3S(=O)(=O)NC(C)(C)C)s2)cc1 [Compound J2] |  |
| < 5 | CC(C)OC(=O)Nc1ccc(-c2ncc(-c3ccc(N4CCCC4=O)cc3S(=O)(=O)NC(C)(C)C)s2)cc1 [Compound J4] |  |
| < 10 | CC(C)OC(=O)Nc1ccc(-c2ncc(-c3ccc(C(F)(F)F)cc3S(=O)(=O)NC(C)(C)C)s2)cc1 [Compound J6] |  |
| < 10 | CC(C)NC(=O)Nc1ccc(-c2ncc(-c3ccc(N4CCCC4=O)cc3S(=O)(=O)NC(C)(C)C)s2)cc1 [Compound J7] |  |
| < 10 | CC(C)OC(=O)N(C)c1ccc(-c2ncc(-c3ccc(N4CCCC4=O)cc3S(=O)(=O)NC(C)(C)C)s2)cc1 [Compound J8, isopropyl N-[4-[5-[2-(tert-butylsulfamoyl)-4-(2-oxopyrrolidin-1-yl)phenyl]thiazol-2-yl]phenyl]-N-methyl-carbamate] |  |
| > 10 | CC(=O)Nc1ccc(-c2cnc(-c3ccc(NCC(C)O)cc3)s2)c(S(=O)(=O)NC(C)(C)C)c1 (stereo not drawn) [Compound J11] |  |
| > 10 | CC(=O)Nc1ccc(-c2cnc(-c3ccc(NCC(C)(C)O)cc3)s2)c(S(=O)(=O)NC(C)(C)C)c1 [Compound J12, N-[3-(tert-butylsulfamoyl)-4-[2-[4-[(2-hydroxy-2-methyl-propyl)amino]phenyl]thiazol-5-yl]phenyl]acetamide] |  |
| > 10 | CC(=O)Nc1ccc(-c2cnc(-c3ccc(N4CC(C)(C)OC4=O)cc3)s2)c(S(=O)(=O)NC(C)(C)C)c1 [Compound J13] |  |
| > 10 | CC(C)NC(=O)Nc1ccc(-c2ncc(-c3ccc(NS(C)(=O)=O)cc3S(=O)(=O)NC(C)(C)C)s2)cc1 [Compound J15] |  |
|  | Cc1cc(-c2ncc(-c3ccc(N4CCCC4=O)cc3S(=O)(=O)NC(C)(C)C)s2)ccc1NC(=O)OC(C)C [Compound J17] | FAIL |
| < 5 | CC(C)OC(=O)Nc1ccc(-c2ncc(-c3ccc(N(C)S(C)(=O)=O)cc3S(=O)(=O)NC(C)(C)C)s2)cc1 [Compound J18] |  |
| > 10 | CC(=O)Nc1ccc(-c2cnc(-c3ccc(N4CCOC4=O)cc3)s2)c(S(=O)(=O)NC(C)(C)C)c1 [Compound J19, N-[3-(tert-butylsulfamoyl)-4-[2-[4-(2-oxooxazolidin-3-yl)phenyl]thiazol-5-yl]phenyl]acetamide] |  |
| > 10 | CC(C)OC(=O)Nc1ccc(-c2ncc(-c3ccc(N4CCN(Cc5ccccc5)C4=O)cc3S(=O)(=O)NC(C)(C)C)s2)cc1 [Compound J21] |  |
| < 5 | CC(C)OC(=O)Nc1ccc(-c2ncc(-c3ccc(N4CCOC4=O)cc3S(=O)(=O)NC(C)(C)C)s2)cc1 [Compound J23, isopropyl N-[4-[5-[2-(tert-butylsulfamoyl)-4-(2-oxooxazolidin-3-yl)phenyl]thiazol-2-yl]phenyl]carbamate] |  |
| < 5 | CC(C)OC(=O)Nc1ccc(-c2ncc(-c3ccc(N4CCCOC4=O)cc3S(=O)(=O)NC(C)(C)C)s2)cc1 [Compound J24, isopropyl N-[4-[5-[2-(tert-butylsulfamoyl)-4-(2-oxo-1,3-oxazinan-3-yl)phenyl]thiazol-2-yl]phenyl]carbamate] |  |
| < 10 | CC(C)OC(=O)Nc1ccc(-c2ncc(-c3ccc(N4CC(C)OC4=O)cc3S(=O)(=O)NC(C)(C)C)s2)cc1 (stereo not drawn) [Compound J26, isopropyl (4-(5-(2-(N-(tert-butyl)sulfamoyl)-4-(5-methyl-2-oxooxazolidin-3-yl)phenyl)thiazol-2-yl)phenyl)carbamate] |  |
| > 10 | CC(C)OC(=O)Nc1ccc(-c2ncc(-c3ccc(N4CC(Cc5ccccc5)OC4=O)cc3S(=O)(=O)NC(C)(C)C)s2)cc1 (stereo not drawn) [Compound J27, isopropyl (4-(5-(4-(5-benzyl-2-oxooxazolidin-3-yl)-2-(N-(tert-butyl)sulfamoyl)phenyl)thiazol-2-yl)phenyl)carbamate] |  |
| > 10 | CC(C)OC(=O)Nc1ccc(-c2ncc(-c3ccc(N4CCC(Cc5ccccc5)C4=O)cc3S(=O)(=O)NC(C)(C)C)s2)cc1 (stereo not drawn) [Compound J28, isopropyl (4-(5-(4-(3-benzyl-2-oxopyrrolidin-1-yl)-2-(N-(tert-butyl)sulfamoyl)phenyl)thiazol-2-yl)phenyl)carbamate] |  |
| > 10 | CC(C)OC(=O)Nc1ccc(-c2ncc(-c3ccc(N4CC(c5ccccc5)OC4=O)cc3S(=O)(=O)NC(C)(C)C)s2)cc1 (stereo not drawn) [Compound J29, isopropyl N-[4-[5-[2-(tert-butylsulfamoyl)-4-(2-oxo-5-phenyl-oxazolidin-3-yl)-phenyl]thiazol-2-yl]phenyl]carbamate] |  |
| > 10 | CC(C)OC(=O)Nc1ccc(-c2ncc(-c3ccc(C(=O)NCc4ccccc4)cc3S(=O)(=O)NC(C)(C)C)s2)cc1 [Compound K1] |  |
| > 10 | CC(C)OC(=O)Nc1ccc(-c2ncc(-c3cc(NC(=O)OCc4ccccc4)ccc3S(=O)(=O)NC(C)(C)C)s2)cc1 [Compound K2] |  |

| SMILES | EC50 [µM] | EC50 (μM) |
| --- | --- | --- |
| CC(C)OC(=O)Nc1ccc(-c2ncc(-c3ccc(NC(C)C(F)(F)F)cc3S(=O)(=O)NC(C)(C)C)s2)cc1 (stereo not drawn) [Compound J3, isopropyl N-[4-[5-[2-(tert-butylsulfamoyl)-4-[(2,2,2-trifluoro-1-methyl-ethyl)amino]phenyl]thiazol-2-yl]phenyl]carbamate] | < 5 |  |
| CC(=O)Nc1ccc(-c2cnc(-c3ccc(NC(=O)OC(C)C)nc3)s2)c(S(=O)(=O)NC(C)(C)C)c1 [Compound J5] | < 1 |  |
| CC(C)OC(=O)Nc1ccc(-c2ncc(-c3ccc(N4CCCC4=O)cc3S(=O)(=O)NC(C)(C)C)s2)cc1F [Compound J9, isopropyl N-[4-[5-[2-(tert-butylsulfamoyl)-4-(2-oxopyrrolidin-1-yl)phenyl]thiazol-2-yl]-2-fluoro-phenyl]carbamate] | < 5 |  |
| CC(=O)Nc1ccc(-c2cnc(-c3cccc(NC(=O)OC(C)C)c3)s2)c(S(=O)(=O)NC(C)(C)C)c1 [Compound J14] | < 10 |  |
| COc1cc(-c2ncc(-c3ccc(N4CCCC4=O)cc3S(=O)(=O)NC(C)(C)C)s2)ccc1NC(=O)OC(C)C [Compound J16] | < 10 |  |
| CC(C)NC(=S)Nc1ccc(-c2ncc(-c3ccc(N4CCN(Cc5ccccc5)C4=O)cc3S(=O)(=O)NC(C)(C)C)s2)cc1 [Compound J22] | > 10 |  |
| CC(O)CNc1ccc(-c2cnc(-c3ccc(NC(=O)OC(C)C)cc3)s2)c(S(=O)(=O)NC(C)(C)C)c1 (stereo not drawn) [Compound J25, isopropyl N-[4-[5-[2-(tert-butylsulfamoyl)-4-(2-hydroxypropylamino)phenyl]thiazol-2-yl]phenyl]carbamate] | < 5 |  |
| CC(C)NC(=S)Nc1ccc(-c2ncc(-c3ccc(NC(=O)OCc4ccccc4)cc3S(=O)(=O)NC(C)(C)C)s2)cc1 [Compound L4] | > 10 |  |
| CCOC(=O)Nc1ccc(-c2cnc(-c3ccc(NC(=S)NC(C)C)cc3)s2)c(S(=O)(=O)NC(C)(C)C)c1 [Compound L5] | < 5 |  |
| CC(C)NC(=S)Nc1ccc(-c2ncc(-c3ccc(NC(=O)c4ccccc4)cc3S(=O)(=O)NC(C)(C)C)s2)cc1 [Compound L6] | < 5 |  |
